According to patent US6355799B1, “Substituted benzene compounds, process for their preparation, and herbicidal and defoliant compositions containing them” (ISK Americas Incorporated, priority 1997, dated 2002):

Experiments:
Format in all cases: in vivo
[1] = system: upland rice (Oryza sp., var. Tebonnet, RICE); assay: Post-emerge test, crop safety; conditions: post-emerge, 14 days after application, rating scale 0-100
Summary of the method: (§1)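 Applied at 15–1000 g ai/ha from acetone in 187 l/ha spray volume. Post-emergence applications included 0.25% v/v non-ionic surfactant and reached plants sown 8–21 days before. Pre-emergence applications were incorporated by surface watering. Efficacy or crop damage was rated on a 0–100 scale after 14 days.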

[2] = system: field corn (Zea mays L., var. Dekalb 535, CORN); assay: Post-emerge test, crop safety; conditions: post-emerge, 14 days after application, rating scale 0-100
Summary of the method: as §1

[3] = system: green foxtail (Setaria viridis, SETVI); assay: Pre-emerge test, greenhouse herbicide activity screening; conditions: pre-emerge, 14 days after application, rating scale 0-100
Summary of the method: as §1

[4] = system: sicklepod (Cassia obtusifolia, CASOB); assay: as above; conditions: pre-emerge, 14 days after application, rating scale 0-100
Summary of the method: as §1

[5] = system: velvetleaf (Abutilon theophrasti, ABUTH); assay: as above; conditions: pre-emerge, 14 days after application, rating scale 0-100
Summary of the method: as §1

[6] = system: lambsquarters (Chenopodium album, CHEAL); assay: as above; conditions: pre-emerge, 14 days after application, rating scale 0-100
Summary of the method: as §1

[7] = system: johnsongrass (Sorghum halepense, SORHA); assay: as above; conditions: pre-emerge, 14 days after application, rating scale 0-100
Summary of the method: as §1

[8] = system: ivyleaf morningglory (Ipomoea hederacea, IPOHE); assay: as above; conditions: pre-emerge, 14 days after application, rating scale 0-100
Summary of the method: as §1

[9] = system: common ragweed (Ambrosia artemisizfolia L., AMBEL); assay: as above; conditions: pre-emerge, 14 days after application, rating scale 0-100
Summary of the method: as §1

[10] = system: large crabgrass (Digitaria sanguinalis, DIGSA); assay: as above; conditions: pre-emerge, 14 days after application, rating scale 0-100
Summary of the method: as §1

[11] = system: barnyardgrass (Echinochloa crus-galli, ECHCG); assay: as above; conditions: pre-emerge, 14 days after application, rating scale 0-100
Summary of the method: as §1

[12] = system: upland rice (Oryza sp., var. Tebonnet, RICE); assay: Pre-emerge test, crop safety; conditions: pre-emerge, 14 days after application, rating scale 0-100
Summary of the method: (§2)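 Herbicidal damage is scored 0 (none) to 100 (complete plant death) two weeks after a simulated field spray. Rates span 15–1000 g ai/ha, delivered in acetone at 187 l/ha. For post-emergence treatments, plants have 2–3 leaves and the spray carries 0.25% v/v non-ionic surfactant.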

[13] = system: field corn (Zea mays L., var. Dekalb 535, CORN); assay: Pre-emerge test, crop safety; conditions: pre-emerge, 14 days after application, rating scale 0-100
Summary of the method: as §2

[14] = system: redroot pigweed (Amaranthus retroflexus, AMARE); assay: Pre-emerge test, greenhouse herbicide activity screening; conditions: pre-emerge, 14 days after application, rating scale 0-100
Summary of the method: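 Plants grown in 10 cm pots of sandy loam mix received acetone-dissolved compounds through a moving flat-fan nozzle. Doses ranged from 15 to 1000 g ai/ha. Pre-emerge pots were seeded one day earlier, post-emerge pots 8–21 days earlier. Fourteen days on, each pot was graded 0–100 for damage.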

[15] = system: green foxtail (Setaria viridis, SETVI); assay: Post-emerge test, greenhouse herbicide activity screening; conditions: post-emerge, 14 days after application, rating scale 0-100
Summary of the method: as §1

[16] = system: redroot pigweed (Amaranthus retroflexus, AMARE); assay: as above; conditions: post-emerge, 14 days after application
Summary of the method: as §1

[17] = system: sicklepod (Cassia obtusifolia, CASOB); assay: as above; conditions: post-emerge, 14 days after application, rating scale 0-100
Summary of the method: as §1

[18] = system: velvetleaf (Abutilon theophrasti, ABUTH); assay: as above; conditions: post-emerge, 14 days after application, rating scale 0-100
Summary of the method: as §1

[19] = system: lambsquarters (Chenopodium album, CHEAL); assay: as above; conditions: post-emerge, 14 days after application, rating scale 0-100
Summary of the method: as §1

[20] = system: johnsongrass (Sorghum halepense, SORHA); assay: as above; conditions: post-emerge, 14 days after application, rating scale 0-100
Summary of the method: as §1

[21] = system: ivyleaf morningglory (Ipomoea hederacea, IPOHE); assay: as above; conditions: post-emerge, 14 days after application, rating scale 0-100
Summary of the method: as §1

[22] = system: large crabgrass (Digitaria sanguinalis, DIGSA); assay: as above; conditions: post-emerge, 14 days after application, rating scale 0-100
Summary of the method: as §1

[23] = system: barnyardgrass (Echinochloa crus-galli, ECHCG); assay: as above; conditions: post-emerge, 14 days after application, rating scale 0-100
Summary of the method: as §1

C=CC=NNc1c(OC)c(Cl)cc(F)c1-n1c(=O)cc(C(F)(F)F)n(C)c1=O [15-10]
Post-emerge Herbicidal Activity RICE (crop damage rating) ([1]; 63 g ai/ha): 50
Post-emerge Herbicidal Activity RICE (crop damage rating) ([1]; 250 g ai/ha): 80
Post-emerge Herbicidal Activity CORN (crop damage rating) ([2]; 63 g ai/ha): 45
Post-emerge Herbicidal Activity CORN (crop damage rating) ([2]; 250 g ai/ha): 65
phytotoxicity rating SETVI ([3]; 63 g ai/ha): 100
phytotoxicity rating SETVI ([3]; 250 g ai/ha): 100
phytotoxicity rating CASOB ([4]; 63 g ai/ha): 80
phytotoxicity rating CASOB ([4]; 250 g ai/ha): 100
phytotoxicity rating ABUTH ([5]; 63 g ai/ha): 100
phytotoxicity rating ABUTH ([5]; 250 g ai/ha): 100
phytotoxicity rating CHEAL ([6]; 63 g ai/ha): 100
phytotoxicity rating CHEAL ([6]; 250 g ai/ha): 100
phytotoxicity rating SORHA ([7]; 63 g ai/ha): 100
phytotoxicity rating SORHA ([7]; 250 g ai/ha): 100
phytotoxicity rating IPOHE ([8]; 63 g ai/ha): 100
phytotoxicity rating IPOHE ([8]; 250 g ai/ha): 100
phytotoxicity rating AMBEL ([9]; 63 g ai/ha): 100
phytotoxicity rating AMBEL ([9]; 250 g ai/ha): 100
phytotoxicity rating DIGSA ([10]; 63 g ai/ha): 100
phytotoxicity rating DIGSA ([10]; 250 g ai/ha): 100
phytotoxicity rating ECHCG ([11]; 63 g ai/ha): 99
phytotoxicity rating ECHCG ([11]; 250 g ai/ha): 100
phytotoxicity rating RICE ([12]; 63 g ai/ha): 80
phytotoxicity rating RICE ([12]; 250 g ai/ha): 100
phytotoxicity rating CORN ([13]; 63 g ai/ha): 75
phytotoxicity rating CORN ([13]; 250 g ai/ha): 100
phytotoxicity rating AMARE ([14]; 63 g ai/ha): 100
phytotoxicity rating AMARE ([14]; 250 g ai/ha): 100
Post-emerge Herbicidal Activity SETVI (phytotoxicity rating) ([15]; 63 g ai/ha): 30
Post-emerge Herbicidal Activity SETVI (phytotoxicity rating) ([15]; 250 g ai/ha): 75
Post-emerge Herbicidal Activity AMARE (phytotoxicity rating) ([16]; 63 g ai/ha, rating scale 0-100 (0 no damage, 100 complete death)): 100
Post-emerge Herbicidal Activity AMARE (phytotoxicity rating) ([16]; 250 g ai/ha, rating scale 0-100): 100
Post-emerge Herbicidal Activity CASOB (phytotoxicity rating) ([17]; 63 g ai/ha): 100
Post-emerge Herbicidal Activity CASOB (phytotoxicity rating) ([17]; 250 g ai/ha): 100
Post-emerge Herbicidal Activity ABUTH (phytotoxicity rating) ([18]; 63 g ai/ha): 100
Post-emerge Herbicidal Activity ABUTH (phytotoxicity rating) ([18]; 250 g ai/ha): 100
Post-emerge Herbicidal Activity CHEAL (phytotoxicity rating) ([19]; 63 g ai/ha): 100
Post-emerge Herbicidal Activity CHEAL (phytotoxicity rating) ([19]; 250 g ai/ha): 100
Post-emerge Herbicidal Activity SORHA (phytotoxicity rating) ([20]; 63 g ai/ha): 30
Post-emerge Herbicidal Activity SORHA (phytotoxicity rating) ([20]; 250 g ai/ha): 70
Post-emerge Herbicidal Activity IPOHE (phytotoxicity rating) ([21]; 63 g ai/ha): 100
Post-emerge Herbicidal Activity IPOHE (phytotoxicity rating) ([21]; 250 g ai/ha): 100
Post-emerge Herbicidal Activity DIGSA (phytotoxicity rating) ([22]; 63 g ai/ha): 60
Post-emerge Herbicidal Activity DIGSA (phytotoxicity rating) ([22]; 250 g ai/ha): 90
Post-emerge Herbicidal Activity ECHCG (phytotoxicity rating) ([23]; 63 g ai/ha): 10
Post-emerge Herbicidal Activity ECHCG (phytotoxicity rating) ([23]; 250 g ai/ha): 80
